Results as given in patent publication US8741836B2, “Polypeptides” (Novo Nordisk A/S, priority 2011, dated 2014).
Starred links: 1 amine or outer side, 2 acyl side, 3 side chain; linkers in the order of their positions; H or OH if unused. Positions of bridges follow the written chain, without caps; N, C: chain ends. Residues, ends and D or L forms follow the SMILES beside them. *: point of attachment. C20 diacid = O=C(O)CCCCCCCCCCCCCCCCCCC(=O)*; C18 diacid = O=C(O)CCCCCCCCCCCCCCCCC(=O)*; γGlu = O=C(O)[C@H](CCC(=O)[*:2])N[*:1]

Test system: ad libitum fed rat
Experiment: Assay (I) efficacy testing on appetite (food intake) using an ad libitum fed rat model
Type: in vivo, Sprague Dawley (SD) rats
Source text: In the following examples reference is made to the following Assays: • Assay (I)—Experimental protocol for efficacy testing on appetite using an ad libitum fed rat model • ASSAY (II)a—Functional assay—Human calcitonin and amylin receptor assay • ASSAY (II)b—Functional assay—Rat calcitonin and rat amylin receptor assays • ASSAY (III)—ThT fibrillation assays for the assessment of physical stability of protein formulations • ASSAY (IV)—Determination of solubility • ASSAY (V)—Determination of binding to the human amylin receptor • ASSAY (VI)—Determination of the binding to the rat amylin receptor • ASSAY (VII)—Determination of binding to the human calcitonin receptor • ASSAY (VIII)—Determination of binding to the rat calcitonin receptor • ASSAY (IX)—pK—Determination of T½ in mini-pig • ASSAY (X)—pK—Determination of T½ in rat Assay (I)—Experimental protocol for Efficacy Testing on Appetite Using an Ad Libitum Fed Rat Model
Sprague Dawley (SD) rats from Taconic Europe, Denmark are used for the experiments. The rats have a body weight 200-250 g at the start of experiment. The rats arrive at least 10-14 days before start of experiment to allow acclimatization to experimental settings. During this period the animals are handled at least 2 times. After arrival rats are housed individually for one week in a reversed light/dark phase (meaning that lights are off during daytime and on during nighttime) […]. Since rats are normally active and eat their major part of their daily food intake during the dark period, rats are dosed in the morning right before lights are turned off. This set-up results in the lowest data variation and highest test sensitivity. The experiment is conducted in the rats' home cages and rats have free access to food and water throughout the acclimatization period and the experiment period. Each dose of derivative is tested in a group of 5-8 rats. A vehicle group of 6-8 rats is included in each set of testing. Rats are dosed once according to body weight with a 0.01-3 mg/kg solution administered intraperitoneally (ip), orally (po) or subcutaneously (sc). The time of dosing is recorded for each group. After dosing, the rats are returned to their home cages, where they then have access to food and water. The food consumption is recorded individually continuously by on-line registration or manually every hour for 7 hours, and then after 24 h and sometimes 48 h. At the end of the experimental session, the animals are euthanised.
The individual data are recorded in Microsoft excel sheets. Outliers are excluded after applying the Grubbs statistical evaluation test for outliers, and the result is presented graphically using the GraphPad Prism program.

Structure (SMILES) | Food intake reduction 0-24 h 3 nmol/kg (%) (0-24 h) | Food intake reduction 24-48 h 3 nmol/kg (%) (24-48 h) | Food intake reduction 0-24 h 30 nmol/kg (%) (30 nmol/kg, 0-24 h) | Food intake reduction 24-48 h 30 nmol/kg (%) (30 nmol/kg, 24-48 h)
CC[C@H](C)[C@H](NC(=O)[C@@H]1CCCN1C(=O)CNC(=O)[C@H](Cc1ccccc1)NC(=O)[C@H](CC(N)=O)NC(=O)[C@H](CC(N)=O)NC(=O)[C@H](CO)NC(=O)[C@H](CO)NC(=O)[C@H](CCCNC(=N)N)NC(=O)[C@@H](NC(=O)[C@H](CC(C)C)NC(=O)[C@H](Cc1ccccc1)NC(=O)[C@H](CCC(=O)O)NC(=O)[C@H](C)NC(=O)[C@H](CC(C)C)NC(=O)[C@H](CCCNC(=N)N)NC(=O)[C@H](CCC(N)=O)NC(=O)[C@@H](NC(=O)[C@H](C)NC(=O)[C@@H]1CSSC[C@H](NC(=O)[C@H](Cc2c[nH]cn2)NC(=O)CC[C@H](NC(=O)CCCCCCCCCCCCCCCCCCC(=O)O)C(=O)O)C(=O)N[C@@H](CC(N)=O)C(=O)N[C@@H]([C@@H](C)O)C(=O)N[C@@H](C)C(=O)N[C@@H]([C@@H](C)O)C(=O)N1)[C@@H](C)O)C(C)C)C(=O)N[C@@H](CC(C)C)C(=O)N1CCC[C@H]1C(=O)N1CCC[C@H]1C(=O)N[C@H](C(=O)N[C@@H](CC(N)=O)C(=O)N[C@H](C(=O)NCC(=O)N[C@@H](CO)C(=O)N[C@@H](CC(N)=O)C(=O)N[C@H](C(=O)N[C@@H](Cc1ccc(O)cc1)C(N)=O)[C@@H](C)O)C(C)C)[C@@H](C)O [Example 15] ({C20 diacid-γGlu}-HCNTATCATQRLAEFLVRSSNNFGPILPPTNVGSNTY-NH2; disulfide 2-7 (inferred)) | 56 | 59 | – | –
CC[C@H](C)[C@H](NC(=O)[C@@H]1CCCN1C(=O)CNC(=O)[C@H](Cc1ccccc1)NC(=O)[C@H](CC(N)=O)NC(=O)[C@H](CC(N)=O)NC(=O)[C@H](CO)NC(=O)[C@H](CO)NC(=O)[C@H](CCCNC(=N)N)NC(=O)[C@H](Cc1c[nH]cn1)NC(=O)[C@H](CC(C)C)NC(=O)[C@H](Cc1ccccc1)NC(=O)[C@H](CCC(=O)O)NC(=O)[C@H](C)NC(=O)[C@H](CC(C)C)NC(=O)[C@H](CCCNC(=N)N)NC(=O)[C@H](CCC(N)=O)NC(=O)[C@@H](NC(=O)[C@H](C)NC(=O)[C@@H]1CSSC[C@H](NC(=O)[C@H](Cc2c[nH]cn2)NC(=O)CC[C@H](NC(=O)CCCCCCCCCCCCCCCCCCC(=O)O)C(=O)O)C(=O)N[C@@H](CC(N)=O)C(=O)N[C@@H]([C@@H](C)O)C(=O)N[C@@H](C)C(=O)N[C@@H]([C@@H](C)O)C(=O)N1)[C@@H](C)O)C(=O)N[C@@H](CC(C)C)C(=O)N1CCC[C@H]1C(=O)N1CCC[C@H]1C(=O)N[C@H](C(=O)N[C@@H](CC(N)=O)C(=O)N[C@H](C(=O)NCC(=O)N[C@@H](CO)C(=O)N[C@@H](CC(N)=O)C(=O)N[C@H](C(=O)N[C@@H](Cc1ccc(O)cc1)C(N)=O)[C@@H](C)O)C(C)C)[C@@H](C)O [Example 1, N-alpha-[(S)-4-Carboxy-4-(19-carboxynonadecanoylamino)butyryl]-[His1,Glu14,His17,Arg18]-pramlintide] ({C20 diacid-γGlu}-HCNTATCATQRLAEFLHRSSNNFGPILPPTNVGSNTY-NH2; disulfide 2-7 (inferred); C-terminus assumed) | 50 | 45 | 93 | 92
CC[C@H](C)[C@H](NC(=O)[C@@H]1CCCN1C(=O)CNC(=O)[C@H](Cc1ccccc1)NC(=O)[C@H](CC(N)=O)NC(=O)[C@H](CC(N)=O)NC(=O)[C@H](CO)NC(=O)[C@H](CO)NC(=O)[C@H](Cc1c[nH]cn1)NC(=O)[C@H](Cc1c[nH]cn1)NC(=O)[C@H](CC(C)C)NC(=O)[C@H](Cc1ccccc1)NC(=O)[C@H](CCC(=O)O)NC(=O)[C@H](C)NC(=O)[C@H](CC(C)C)NC(=O)[C@H](CCCNC(=N)N)NC(=O)[C@H](CCC(N)=O)NC(=O)[C@@H](NC(=O)[C@H](C)NC(=O)[C@@H]1CSSC[C@H](NC(=O)[C@H](CCCCN)NC(=O)[C@H](CCC(=O)O)NC(=O)CC[C@H](NC(=O)CCCCCCCCCCCCCCCCC(=O)O)C(=O)O)C(=O)N[C@@H](CC(N)=O)C(=O)N[C@@H]([C@@H](C)O)C(=O)N[C@@H](C)C(=O)N[C@@H]([C@@H](C)O)C(=O)N1)[C@@H](C)O)C(=O)N[C@@H](CC(C)C)C(=O)N1CCC[C@H]1C(=O)N1CCC[C@H]1C(=O)N[C@H](C(=O)N[C@@H](CC(N)=O)C(=O)N[C@H](C(=O)NCC(=O)N[C@@H](CO)C(=O)N[C@@H](CC(N)=O)C(=O)N[C@H](C(=O)N[C@@H](Cc1ccc(O)cc1)C(N)=O)[C@@H](C)O)C(C)C)[C@@H](C)O [Example 42, N-alpha-[(S)-4-Carboxy-4-(17-carboxyheptadecanoylamino)butyryl]-Glu-[Glu14,His17]-pramlintide] ({C18 diacid-γGlu}-EKCNTATCATQRLAEFLHHSSNNFGPILPPTNVGSNTY-NH2; disulfide 3-8) | 45 | 5 | – | –
CC[C@H](C)[C@H](NC(=O)[C@@H]1CCCN1C(=O)CNC(=O)[C@H](Cc1ccccc1)NC(=O)[C@H](CC(N)=O)NC(=O)[C@H](CC(N)=O)NC(=O)[C@H](CO)NC(=O)[C@H](CO)NC(=O)[C@H](Cc1c[nH]cn1)NC(=O)[C@H](Cc1c[nH]cn1)NC(=O)[C@H](CC(C)C)NC(=O)[C@H](Cc1ccccc1)NC(=O)[C@H](CCC(=O)O)NC(=O)[C@H](C)NC(=O)[C@H](CC(C)C)NC(=O)[C@H](CCCNC(=N)N)NC(=O)[C@H](CCC(N)=O)NC(=O)[C@@H](NC(=O)[C@H](C)NC(=O)[C@@H]1CSSC[C@H](NC(=O)[C@H](CCCCN)NC(=O)[C@H](CCC(=O)O)NC(=O)CC[C@H](NC(=O)CCCCCCCCCCCCCCCCCCC(=O)O)C(=O)O)C(=O)N[C@@H](CC(N)=O)C(=O)N[C@@H]([C@@H](C)O)C(=O)N[C@@H](C)C(=O)N[C@@H]([C@@H](C)O)C(=O)N1)[C@@H](C)O)C(=O)N[C@@H](CC(C)C)C(=O)N1CCC[C@H]1C(=O)N1CCC[C@H]1C(=O)N[C@H](C(=O)N[C@@H](CC(N)=O)C(=O)N[C@H](C(=O)NCC(=O)N[C@@H](CO)C(=O)N[C@@H](CC(N)=O)C(=O)N[C@H](C(=O)N[C@@H](Cc1ccc(O)cc1)C(N)=O)[C@@H](C)O)C(C)C)[C@@H](C)O [Example 26, N-alpha-[(S)-4-Carboxy-4-(19-carboxynonadecanoylamino)butyryl]-Glu-[Glu14,His17]-pramlintide] ({C20 diacid-γGlu}-EKCNTATCATQRLAEFLHHSSNNFGPILPPTNVGSNTY-NH2; disulfide 3-8 (inferred)) | 46 | 39 | – | –
CC[C@H](C)[C@H](NC(=O)[C@H](CCC(=O)O)NC(=O)CNC(=O)[C@H](Cc1ccccc1)NC(=O)[C@H](CC(N)=O)NC(=O)[C@H](CC(N)=O)NC(=O)[C@H](CO)NC(=O)[C@H](CO)NC(=O)[C@H](CCCNC(=N)N)NC(=O)[C@H](Cc1c[nH]cn1)NC(=O)[C@H](CC(C)C)NC(=O)[C@H](Cc1ccccc1)NC(=O)[C@H](CCC(=O)O)NC(=O)[C@H](C)NC(=O)[C@H](CC(C)C)NC(=O)[C@H](CCCNC(=N)N)NC(=O)[C@H](CCC(N)=O)NC(=O)[C@@H](NC(=O)[C@H](C)NC(=O)[C@@H]1CSSC[C@H](NC(=O)[C@H](Cc2c[nH]cn2)NC(=O)CC[C@H](NC(=O)CCCCCCCCCCCCCCCCCCC(=O)O)C(=O)O)C(=O)N[C@@H](CC(N)=O)C(=O)N[C@@H]([C@@H](C)O)C(=O)N[C@@H](C)C(=O)N[C@@H]([C@@H](C)O)C(=O)N1)[C@@H](C)O)C(=O)N[C@@H](CC(C)C)C(=O)N[C@@H](CO)C(=O)N[C@@H](CCCNC(=N)N)C(=O)N[C@H](C(=O)N[C@@H](CC(N)=O)C(=O)N[C@H](C(=O)NCC(=O)N[C@@H](CO)C(=O)N[C@@H](CC(N)=O)C(=O)N[C@H](C(=O)N[C@@H](Cc1ccc(O)cc1)C(N)=O)[C@@H](C)O)C(C)C)[C@@H](C)O [Example 7, N-alpha-[(S)-4-Carboxy-4-(19-carboxynonadecanoylamino)butyryl]-[His1,Glu14,His17,Arg18,Glu25,Ser28,Arg29]-pramlintide] ({C20 diacid-γGlu}-HCNTATCATQRLAEFLHRSSNNFGEILSRTNVGSNTY-NH2; disulfide 2-7 (inferred)) | 53 | 46 | – | –
